According to patent publication US20240010726A1, “LFA-1 SIGNALLING MEDIATOR FOR USE IN CANCER THERAPY” (Universität Basel, priority 2020, published 2024):

Experiments:
PSMA+ PC3-PIP cell line = experiment: Cytotoxicity assay with anti-PSMA CAR T cells (IncuCyte); type: cell-based, human; settings: time-lapse killing; E:T 2:1; 0 mM vs 0.6 mM Mg^2+
Method: FIG. 3: Magnesium regulates LFA-1 mediated T cell activation and cytotoxicity as well BiTE- and CAR T-cell functionality. (a) Glycolytic switch of murine WT and LFA-1^-/- CTLs upon injection of anti-CD3/28 Ab in medium containing 1.2 mM Mg^2+ and 0 mM Mg^2+, presented as quantification of summarized data with n=4 mice. (b) Calcium flux in WT and LFA-1^-/- Jurkat T cells stimulated with anti-CD3 Ab in 1.2 mM and 0 mM Mg^2+ medium, respectively. Cells were loaded with Fluo4, and signal intensity as recorded by plate reader, was normalized to unstimulated baseline values. […] Quantified results of n=3 mice with 3 technical replicates each. […] The effector to target cell ratio was 3:1. Results are quantified of n=3 mice with 3 technical replicates each. (e) Representative CD11a (LFA-1) surface expression on human naïve and EM CD8 T cells, PHA T cell blasts and REP T cells, assessed by flow cytometry. […] The effector to target cell ratio was 1:1. Data is presented as quantified results of n=5 healthy donors (f, g, h), n=3 healthy donors with 2 technical replicates each or n=1 healthy donor with 4 technical replicates (j). […] Data is presented as quantified results of n=1 healthy donor with 4 technical replicates. […] (p) Abundance of IFNγ in cell culture supernatants corresponding to the conditions depicted in (o) at 24 hours was determined by ELISA (n=8, 3 independent experiments). […]

LFA-1 = target: T1, LFA-1 (Homo sapiens, UniProt P05107+P20701); experiment: LFA-1 conformations on REP T cells co-incubated with peptide-pulsed T2 target cells; type: cell-based; settings: T2 cells pulsed with 10^−8 M 9c peptide; E:T 1:1; presence vs absence of extracellular Mg^2+
T1 construct: endogenous in cells; host or cells: primary human T cells from healthy donors: PHA-induced T cell blasts, sorted EM and naive CD8 T cells, and NY-ESO-1 TCR-transduced REP T cells
Method: FIG. 3: Magnesium regulates LFA-1 mediated T cell activation and cytotoxicity as well BiTE- and CAR T-cell functionality. (a) Glycolytic switch of murine WT and LFA-1^-/- CTLs upon injection of anti-CD3/28 Ab in medium containing 1.2 mM Mg^2+ and 0 mM Mg^2+, presented as quantification of summarized data with n=4 mice. (b) Calcium flux in WT and LFA-1^-/- Jurkat T cells stimulated with anti-CD3 Ab in 1.2 mM and 0 mM Mg^2+ medium, respectively. Cells were loaded with Fluo4, and signal intensity as recorded by plate reader, was normalized to unstimulated baseline values. […] Quantified results of n=3 mice with 3 technical replicates each. […] The effector to target cell ratio was 3:1. Results are quantified of n=3 mice with 3 technical replicates each. (e) Representative CD11a (LFA-1) surface expression on human naïve and EM CD8 T cells, PHA T cell blasts and REP T cells, assessed by flow cytometry. […] The effector to target cell ratio was 1:1. Data is presented as quantified results of n=5 healthy donors (f, g, h), n=3 healthy donors with 2 technical replicates each or n=1 healthy donor with 4 technical replicates (j). […] The effector to target cell ratio was 1:1. Data is presented as quantified results of n=1 healthy donor with 4 technical replicates. […] (n) Representative histogram of CD11a expression on PHA-blasts, untransduced T cells as well anti-CD19 expressing CAR T cells. […] Pooled results of n=6 from 2 independent experiments are shown. (p) Abundance of IFNγ in cell culture supernatants corresponding to the conditions depicted in (o) at 24 hours was determined by ELISA (n=8, 3 independent experiments). (q) Tumor growth curves of mice placed on either Mg^2+-depleted diet or respective control diet and treated with either anti-PSMA CAR T cells, untransduced T cells or saline solution. Representative of n=2 independent experiments with n=6 mice per group. REP […] target cells in flat bottom 96 well-plate, if not indicated otherwise, at a 1:1 ratio (4-6×10^4 each). Optimal ratio had been titrated for each donor beforehand. […]

T1 sequence (P20701 26-1170): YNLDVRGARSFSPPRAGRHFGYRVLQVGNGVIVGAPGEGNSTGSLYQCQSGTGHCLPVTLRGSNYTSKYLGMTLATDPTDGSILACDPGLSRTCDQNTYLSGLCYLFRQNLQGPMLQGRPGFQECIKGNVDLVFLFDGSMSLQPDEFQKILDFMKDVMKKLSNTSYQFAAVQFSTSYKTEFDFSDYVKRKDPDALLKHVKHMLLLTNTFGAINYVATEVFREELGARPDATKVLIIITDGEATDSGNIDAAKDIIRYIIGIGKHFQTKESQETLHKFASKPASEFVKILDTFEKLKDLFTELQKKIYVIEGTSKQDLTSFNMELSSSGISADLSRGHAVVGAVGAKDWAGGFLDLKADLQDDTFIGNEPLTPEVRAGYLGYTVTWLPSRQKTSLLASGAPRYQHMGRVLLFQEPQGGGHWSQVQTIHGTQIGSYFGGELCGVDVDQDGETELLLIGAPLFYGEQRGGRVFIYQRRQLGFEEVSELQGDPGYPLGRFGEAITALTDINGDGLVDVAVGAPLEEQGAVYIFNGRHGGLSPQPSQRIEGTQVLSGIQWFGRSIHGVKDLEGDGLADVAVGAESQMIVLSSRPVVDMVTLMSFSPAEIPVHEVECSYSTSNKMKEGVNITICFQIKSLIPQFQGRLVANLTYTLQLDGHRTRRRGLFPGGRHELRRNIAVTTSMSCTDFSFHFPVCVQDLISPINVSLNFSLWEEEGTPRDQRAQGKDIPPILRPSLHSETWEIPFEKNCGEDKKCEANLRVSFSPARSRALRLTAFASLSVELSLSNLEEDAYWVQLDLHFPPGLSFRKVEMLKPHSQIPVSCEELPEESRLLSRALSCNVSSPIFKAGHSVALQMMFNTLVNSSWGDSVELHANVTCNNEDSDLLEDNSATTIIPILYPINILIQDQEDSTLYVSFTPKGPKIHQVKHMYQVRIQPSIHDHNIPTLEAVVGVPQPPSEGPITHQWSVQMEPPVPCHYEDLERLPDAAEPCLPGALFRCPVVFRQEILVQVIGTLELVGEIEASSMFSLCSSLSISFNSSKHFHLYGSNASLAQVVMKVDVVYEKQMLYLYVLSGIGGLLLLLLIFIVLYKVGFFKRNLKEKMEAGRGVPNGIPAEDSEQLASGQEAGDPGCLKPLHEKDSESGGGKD
T1 sequence (P05107 23-769): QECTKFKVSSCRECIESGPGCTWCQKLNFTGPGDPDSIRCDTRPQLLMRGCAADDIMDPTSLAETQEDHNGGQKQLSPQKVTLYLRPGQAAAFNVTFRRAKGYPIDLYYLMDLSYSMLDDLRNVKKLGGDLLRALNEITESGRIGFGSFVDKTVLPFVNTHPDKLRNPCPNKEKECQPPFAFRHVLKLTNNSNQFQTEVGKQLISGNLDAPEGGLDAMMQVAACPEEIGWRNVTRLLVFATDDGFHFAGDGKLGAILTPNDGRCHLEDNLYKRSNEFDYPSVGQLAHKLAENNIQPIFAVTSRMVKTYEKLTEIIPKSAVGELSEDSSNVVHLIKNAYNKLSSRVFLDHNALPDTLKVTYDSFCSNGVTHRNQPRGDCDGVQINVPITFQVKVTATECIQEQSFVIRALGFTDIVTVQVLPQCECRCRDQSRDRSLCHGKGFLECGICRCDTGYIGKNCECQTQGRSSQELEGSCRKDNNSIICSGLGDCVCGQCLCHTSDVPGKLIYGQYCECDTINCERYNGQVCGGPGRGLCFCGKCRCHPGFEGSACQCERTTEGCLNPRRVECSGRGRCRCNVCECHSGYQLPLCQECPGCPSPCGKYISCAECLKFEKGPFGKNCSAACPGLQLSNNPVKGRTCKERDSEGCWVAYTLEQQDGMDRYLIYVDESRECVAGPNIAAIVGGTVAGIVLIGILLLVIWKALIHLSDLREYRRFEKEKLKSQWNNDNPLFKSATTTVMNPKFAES

## [Mg+2] [Mg^2+, Magnesium]
PSMA+ PC3-PIP cell line
  Cytolytic activity of CAR T cells against tumor target cells: impaired the cytolytic activity
LFA-1
  Extended LFA-1 conformation on REP T cells: significant increase of extended LFA-1
  Inactive LFA-1 with bent conformation on REP T cells: reduced abundance of inactive, bent conformation
  LFA-1 with open head-piece on REP T cells: significant increase
